US20060142337A1, “Piperidine derivative and use thereof” (priority 2004, published 2006)

Biological target: T1, substance P receptor (Homo sapiens, UniProt P25103)
T1 construct: endogenous in cells; host or cells: IM-9 human lymphoblast cells (membrane preparation)
Assay: Radioligand receptor binding inhibitory activity using receptor from human lymphoblast cells (IM-9)
Details: [125I]-BHSP binding, receptor from IM-9 cells, 25 C, 30 min
Experimental: Radioligand receptor binding inhibitory activity (Binding inhibitory activity using receptor from human lymphoblast cells (IM-9))
The method of M. A. Cascieri et al., “Molecular Pharmacology 42, p. 458 (1992)” was modified and used. The receptor was. prepared from human lymphoblast cells (IM-9). IM-9 cells (2×10^5 cells/mL) were incubated for 3 days (one liter), which was then subjected to centrifuge for 5 min. at 500×G to obtain cell pellets. The obtained pellets were washed once with phosphate buffer (Flow Laboratories, CAT. No. 28-103-05), which were then homogenized using Polytron homogenizer (“Kinematika”, Germany) in 30 mL of 50 mM Tris-HCl buffer (pH 7.4) containing 120 mM sodium chloride, 5 mM potassium chloride, 2 μg/mL chymostatin, 40 μg/mL bacitracin, 5 μg/mL phosphoramidon, 0.5 mM phenylmethylsulfonyl fluoride, 1 mM ethylenediamine tetra-acetate, which was subjected to centrifuge at 40,000×G for 20 min. The residue was washed twice with 30 mL of the buffer, which was then preserved frozen (−80° C.) as a specimen of the receptor.
The specimen was suspended in a reaction buffer (50 mM Tris-HCl buffer (pH 7.4), 0.02% bovine serum albumin, 1 mM phenylmethylsulfonyl fluoride, 2 μg/mL chymostatin, 40 μg/mL bacitracin and 3 mM manganese chloride) to have protein in the concentration of 0.5 mg/mL of protein and 100 μL portion of the suspension was used in the reaction. After addition of the sample and ^125]-BHSP (0.46 KBq), the reaction was allowed to proceed in 0.2 mL of reaction buffer at […] for 30 min. The amount of nonspecific binding was determined by adding substance P at a final concentration of 2×10^−6 M.
After the reaction, using a cell harvester (290 PHD, Cambridge Technology, Inc, U.S.A.), filtration was carried out through a glass filter (GF/B, Whatman, U.S.A.), which was immersed in 0.1% polyethyleneimine for 24 hrs. and dried. After washing three times with 250 μL of 50 mM Tris-HCl buffer (pH 7.4) containing 0.02% bovine serum albumin, the radioactivity remaining on the filter was. determined with a gamma counter.
The antagonistic activity of each compound obtained in Examples was determined in terms of the concentration necessary to cause 50% inhibition (IC50 value) under the above-described conditions, and the results were shown in Table 14.
The radio ligand means substance P labeled with [^125I].

T1 sequence (P25103 whole entry): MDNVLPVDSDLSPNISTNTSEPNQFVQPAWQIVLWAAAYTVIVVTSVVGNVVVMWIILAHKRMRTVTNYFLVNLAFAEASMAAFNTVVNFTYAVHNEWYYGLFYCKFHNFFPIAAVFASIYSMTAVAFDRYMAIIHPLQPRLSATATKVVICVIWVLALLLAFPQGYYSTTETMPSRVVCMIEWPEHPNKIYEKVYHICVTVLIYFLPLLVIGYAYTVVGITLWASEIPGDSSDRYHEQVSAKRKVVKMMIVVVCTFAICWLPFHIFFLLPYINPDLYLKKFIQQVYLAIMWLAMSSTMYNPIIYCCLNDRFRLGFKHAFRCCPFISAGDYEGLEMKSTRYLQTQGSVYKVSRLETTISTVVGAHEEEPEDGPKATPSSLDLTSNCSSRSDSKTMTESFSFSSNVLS

SMILES | IC50 [nM]
CCNC(=O)[C@H]1CC[C@H](C(=O)N2CC[C@H](O[C@H](C)c3cc(C(F)(F)F)cc(C(F)(F)F)c3)[C@H](c3ccccc3)C2)CC1 [Example 69, trans-4-[[(3R,4S)-4-[(1R)-1-[3,5-Bis(trifluoromethyl)phenyl]ethoxy]-3-phenylpiperidin-1-yl]carbonyl]-N-ethylcyclohexanecarboxamide] | 0.099
CC(=O)N1CCC(NC(=O)N2CC[C@H](O[C@H](C)c3cc(C(F)(F)F)cc(C(F)(F)F)c3)[C@H](c3ccccc3)C2)CC1 [Example 71, (3R,4S)-N-(1-acetylpiperidin-4-yl)-4-[(1R)-1-[3,5-bis(trifluoromethyl)phenyl]ethoxy]-3-phenylpiperidine-1-carboxamide] | 0.094
CCC(=O)N1CCC(NC(=O)N2CC[C@H](O[C@H](C)c3cc(C(F)(F)F)cc(C(F)(F)F)c3)[C@H](c3ccccc3)C2)CC1 [Example 72, (3R,4S)-4-[(1R)-1-[3,5-Bis(trifluoromethyl)phenyl]ethoxy]-3-phenyl-N-(1-propionylpiperidin-4-yl)piperidine-1-carboxamide] | 0.091
CC(=O)NC1CCN(C(=O)N2CC[C@H](O[C@H](C)c3cc(C(F)(F)F)cc(C(F)(F)F)c3)[C@H](c3ccccc3)C2)CC1 [Example 73, N-[1-[[(3R,4S)-4-[(1R)-1-[3,5-bis(trifluoromethyl)phenyl]ethoxy]-3-phenylpiperidin-1-yl]carbonyl]piperidin-4-yl]acetamide] | 0.097
CCC(=O)NC1CCN(C(=O)N2CC[C@H](O[C@H](C)c3cc(C(F)(F)F)cc(C(F)(F)F)c3)[C@H](c3ccccc3)C2)CC1 [Example 74, N-[1-[[(3R,4S)-4-[(1R)-1-[3,5-bis(trifluoromethyl)phenyl]ethoxy]-3-phenylpiperidin-1-yl]carbonyl]piperidin-4-yl]propanamide] | 0.087
C[C@@H](O[C@H]1CCN(C(=O)C2CC(=O)NC(=O)C2)C[C@H]1c1ccccc1)c1cc(C(F)(F)F)cc(C(F)(F)F)c1 [Example 76, 4-[[(3R,4S)-4-[(1R)-1-[3,5-Bis(trifluoromethyl)phenyl]ethoxy]-3-phenylpiperidin-1-yl]carbonyl]piperidine-2,6-dione] | 0.084
C[C@@H](O[C@H]1CCN(C(=O)C2CC(=O)N(C)C(=O)C2)C[C@H]1c1ccccc1)c1cc(C(F)(F)F)cc(C(F)(F)F)c1 [Example 77, 4-[[(3R,4S)-4-[(1R)-1-[3,5-Bis(trifluoromethyl)phenyl]ethoxy]-3-phenylpiperidin-1-yl]carbonyl]-1-methylpiperidine-2,6-dione] | 0.062
C[C@@H](O[C@H]1CCN(C(=O)CC2NC(=O)NC2=O)C[C@H]1c1ccccc1)c1cc(C(F)(F)F)cc(C(F)(F)F)c1 (stereo partly drawn) [Example 78, 5-[2-[(3R,4S)-4-[(1R)-1-[3,5-Bis(trifluoromethyl)phenyl]ethoxy]-3-phenylpiperidin-1-yl]-2-oxoethyl]imidazolidine-2,4-dione] | 0.096
C[C@@H](O[C@H]1CCN(C(=O)C2CCN(C(=O)Cn3cncn3)CC2)C[C@H]1c1ccccc1)c1cc(C(F)(F)F)cc(C(F)(F)F)c1 [Example 119, (3R,4S)-4-{(1R)-1-[3,5-Bis(trifluoromethyl)phenyl]ethoxy}-3-phenyl-1-([1-(1H-1,2,4-triazol-1-ylacetyl)piperidin-4-yl]carbonyl}piperidine] | 0.02
C[C@@H](O[C@H]1CCN(C(=O)C2CCN(C(=O)Cn3cccn3)CC2)C[C@H]1c1ccccc1)c1cc(C(F)(F)F)cc(C(F)(F)F)c1 [Example 122, (3R,4S)-4-{(1R)-1-[3,5-Bis(trifluoromethyl)phenyl]ethoxy}-3-phenyl-1-{[1-(1H-pyrazol-1-ylacetyl)piperidin-4-yl]carbonyl}piperidine] | 0.021
